Results on 18 compounds are retold here after US20210040089A1, “KRAS MUTANT PROTEIN INHIBITORS” (Jacobio Pharmaceuticals Co., Ltd., priority 2019, published 2021).

Molecules are shown by their SMILES. Where only a bound is given, the exact number is not on record here.

Test [1] relates to NCI-H358 cells express KRAS G12C. Put plainly: Cell growth inhibition assay (CCK-8). It counts as cell-based. The conditions noted are these: Homo sapiens, 144 h; NCI-H358, 6 days incubation. In a few lines: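 Antiproliferative read-out: KRAS G12C-mutant NCI-H358 lung cancer cells (3000/well) exposed to compounds in RPMI 1640 with 10% FBS for 6 days at 37°C. Viability by CCK-8 (OD450) after 1.5-2 h; IC50 from 4-parameter logistic fit.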

The test system of test [2] is Phospho-ERK1/2(THR202/TYR204) in NCI-H358 cells express KRAS G12C. Kind of test: Phospho-ERK1/2(THR202/TYR204) HTRF assay. The test is classed as cell-based. As to conditions: Homo sapiens; NCI-H358, 2 hours incubation; read-out: p-ERK inhibition in NCI-H358 IC50. The procedure, abridged: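 Compounds applied to attached cells for 2 h at 37 °C in RPMI 1640 with 0.1% FBS. Lysate phospho-ERK1/2 detected by HTRF after 4 h antibody incubation at 25 °C; IC50 from 4-parameter logistic fit.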

Another test deals with T1, KRAS G12C (Homo sapiens, UniProt P01116, G12C).
T1 construct: HIS-KRAS (G12C, aa 2-185, Sino biological); purchased Sino biological
T1 sequence (P01116 2-185 isoform P01116-2 G12C): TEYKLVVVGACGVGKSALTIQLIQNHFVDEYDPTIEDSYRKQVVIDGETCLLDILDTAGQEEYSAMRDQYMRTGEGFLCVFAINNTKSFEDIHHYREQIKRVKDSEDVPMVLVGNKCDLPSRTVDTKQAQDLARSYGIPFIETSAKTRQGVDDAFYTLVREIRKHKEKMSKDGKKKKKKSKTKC
Kind of test: SOS1 catalyzed nucleotide exchange assay (TR-FRET). It counts as biochemical. The conditions noted are these: GDP-loaded HIS-KRAS(G12C), 1 hour pre-incubation with compound. In a few lines:
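EDTA-stripped, GDP-loaded His-KRAS G12C (aa 2-185; 3 nM final) preincubated 1 h with compound, then SOS1 ExD (aa 564-1049; 2 μM) and BODIPY-FL GTP (80 nM) added for 4 h at 25 °C. TR-FRET via anti-His Tb cryptate (515/486 nm ratio); IC50 from 4-parameter logistic fit.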

As to `C=CC(=O)N1CCN(c2nc(OCC3(CN(C)C)CC3)nc3c2CCN(c2cccc4ccccc24)C3)CC1CC#N` (stereo not drawn) [Compound 37, 2-(1-acryloyl-4-(2-((1-((dimethylamino)methyl)cyclopropyl)methoxy)-7-(naphthalen-1-yl)-5,6,7,8-tetrahydropyrido[3,4-d]pyrimidin-4-yl)piperazin-2-yl)acetonitrile], the IC50 in test [1] turned out to be 0.0855 µM; in test [2], 0.0816 µM; at KRAS G12C, 0.00675 µM.
For `C=CC(=O)N1CCN(c2nc(OCC3(CN4CCCC4)CC3)nc3c2CCN(c2cccc(Cl)c2C(F)(F)F)C3)CC1CC#N` (stereo not drawn) [Compound 38, 2-(1-acryloyl-4-(7-(3-chloro-2-(trifluoromethyl)phenyl)-2-((1-(pyrrolidin-1-ylmethyl)cyclopropyl)methoxy)-5,6,7,8-tetrahydropyrido[3,4-d]pyrimidin-4-yl)piperazin-2-yl)acetonitrile] the same measures were 0.0602 µM, 0.066 µM and 0.00524 µM.
Taken in the same sequence, the figures for `C=CC(=O)N1CCN(c2nc(OCC3(CN4CCC4)CC3)nc3c2CCN(c2cccc(Cl)c2C(F)(F)F)C3)CC1CC#N` (stereo not drawn) [Compound 39, 2-(1-acryloyl-4-(2-((1-(azetidin-1-ylmethyl)cyclopropyl)methoxy)-7-(3-chloro-2-(trifluoromethyl)phenyl)-5,6,7,8-tetrahydropyrido[3,4-d]pyrimidin-4-yl)piperazin-2-yl)acetonitrile] were 0.104 µM, 0.0796 µM and 0.00728 µM.
Taken in the same sequence, the figures for `C=CC(=O)N1CCN(c2nc(OCC3(CN4CCC4)CC3)nc3c2CCN(c2cccc4ccccc24)C3)CC1CC#N` (stereo not drawn) [Compound 41, 2-(1-acryloyl-4-(2-((1-(azetidin-1-ylmethyl)cyclopropyl)methoxy)-7-(naphthalen-1-yl)-5,6,7,8-tetrahydropyrido[3,4-d]pyrimidin-4-yl)piperazin-2-yl)acetonitrile] were 0.179 µM, 0.149 µM and 0.0135 µM.
Consider `C=CC(=O)N1CCN(c2nc(OCC3(CN4CCC4)CC3)nc3c2CCN(c2cccc4cccc(Cl)c24)C3)CC1CC#N` (stereo not drawn) [Compound 42, 2-(1-acryloyl-4-(2-((1-(azetidin-1-ylmethyl)cyclopropyl)methoxy)-7-(8-chloronaphthalen-1-yl)-5,6,7,8-tetrahydropyrido[3,4-d]pyrimidin-4-yl)piperazin-2-yl)acetonitrile], for which the figures for the IC50 (in test [1]; in test [2]; at KRAS G12C) were 0.119 µM, 0.0636 µM and 0.00524 µM, respectively.
For `C=CC(=O)N1CCN(c2nc(OCC3(CN4CCC4)CC3)nc3c2CCN(c2cccc4cccc(C)c24)C3)CC1CC#N` (stereo not drawn) [Compound 43, 2-(1-acryloyl-4-(2-((1-(azetidin-1-ylmethyl)cyclopropyl)methoxy)-7-(8-methylnaphthalen-1-yl)-5,6,7,8-tetrahydropyrido[3,4-d]pyrimidin-4-yl)piperazin-2-yl)acetonitrile] the same measures were 0.135 µM, 0.0718 µM and 0.00505 µM.
Consider `C=CC(=O)N1CCN(c2nc(OCC3(CN4CCCC4)CCC3)nc3c2CCN(c2cccc4ccccc24)C3)CC1CC#N` (stereo not drawn) [Compound 44, 2-(1-acryloyl-4-(7-(naphthalen-1-yl)-2-((1-(pyrrolidin-1-ylmethyl)cyclobutyl)methoxy)-5,6,7,8-tetrahydropyrido[3,4-d]pyrimidin-4-yl)piperazin-2-yl)acetonitrile], for which the IC50 was found to be 0.742 µM in test [1], 0.22 µM in test [2] and 0.0332 µM at KRAS G12C.
Turning to `C=CC(=O)N1CCN(c2nc(OCC3(CN4CCCC4)CCC3)nc3c2CCN(c2cccc4cccc(C)c24)C3)CC1CC#N` (stereo not drawn) [Compound 45, 2-(1-acryloyl-4-(7-(8-methylnaphthalen-1-yl)-2-((1-(pyrrolidin-1-ylmethyl)cyclobutyl)methoxy)-5,6,7,8-tetrahydropyrido[3,4-d]pyrimidin-4-yl)piperazin-2-yl)acetonitrile], the half-maximal inhibitory concentration (IC50) in test [1] was 0.59 µM; in test [2], 0.216 µM; at KRAS G12C it was 0.0133 µM.
Consider `C=CC(=O)N1CCN(c2nc(OCC3(CN(C)C)CC3)nc3c2CCN(c2cccc4cccc(Cl)c24)C3)CC1CC#N` (stereo not drawn) [Compound 46, 2-(1-acryloyl-4-(7-(8-chloronaphthalen-1-yl)-2-((1-((dimethylamino)methyl)cyclopropyl)methoxy)-5,6,7,8-tetrahydropyrido[3,4-d]pyrimidin-4-yl)piperazin-2-yl)acetonitrile], for which the IC50 in test [1] was 0.0269 µM; in test [2], 0.0147 µM; at KRAS G12C, 0.00257 µM.
In the case of `C=CC(=O)N1CCN(c2nc(OCC3(CN(C)C)CC3)nc3c2CCN(c2cccc4cccc(C)c24)C3)CC1CC#N` (stereo not drawn) [Compound 47, 2-(1-acryloyl-4-(2-((1-((dimethylamino)methyl)cyclopropyl)methoxy)-7-(8-methylnaphthalen-1-yl)-5,6,7,8-tetrahydropyrido[3,4-d]pyrimidin-4-yl)piperazin-2-yl)acetonitrile], the IC50 in test [1] is 0.0264 µM; in test [2], 0.0237 µM; on KRAS G12C, 0.00116 µM.
`C=CC(=O)N1CCN(c2nc(OCC3(CN(C)C)CC3)nc3c2CCN(c2cccc(C)c2C)C3)CC1CC#N` (stereo not drawn) [Compound 48, 2-(1-acryloyl-4-(2-((1-((dimethylamino)methyl)cyclopropyl)methoxy)-7-(2,3-dimethylphenyl)-5,6,7,8-tetrahydropyrido[3,4-d]pyrimidin-4-yl)piperazin-2-yl)acetonitrile]: the IC50 amounted to 0.0949 µM in test [1], 0.066 µM in test [2] and 0.00331 µM on KRAS G12C.
For the compound `C=CC(=O)N1CCN(c2nc(OCC3(CN4CC[C@@H](F)C4)CC3)nc3c2CCN(c2cccc4cccc(C)c24)C3)CC1CC#N` (stereo partly drawn) [Compound 49, 2-(1-acryloyl-4-(2-((1-(((R)-3-fluoropyrrolidin-1-yl)methyl)cyclopropyl)methoxy)-7-(8-methylnaphthalen-1-yl)-5,6,7,8-tetrahydropyrido[3,4-d]pyrimidin-4-yl)piperazin-2-yl)acetonitrile], the 50% inhibitory concentration (IC50) in test [1] turned out to be 0.0642 µM; in test [2], 0.0384 µM; on KRAS G12C it was 0.00312 µM.
For `C=CC(=O)N1CCN(c2nc(OCC3(CN(C)C)CC3)nc3c2CCN(c2cccc4ccsc24)C3)CC1CC#N` (stereo not drawn) [Compound 50, 2-(1-acryloyl-4-(7-(benzo[b]thiophen-7-yl)-2-((1-((dimethylamino)methyl)cyclopropyl)methoxy)-5,6,7,8-tetrahydropyrido[3,4-d]pyrimidin-4-yl)piperazin-2-yl)acetonitrile] the same measures were 0.202 µM, 0.0838 µM and 0.00866 µM.
Turning to `C=CC(=O)N1CCN(c2nc(OCC3(CN(C)C)CC3)nc3c2CCN(c2cccc4sccc24)C3)CC1CC#N` (stereo not drawn) [Compound 51, 2-(1-acryloyl-4-(7-(benzo[b]thiophen-4-yl)-2-((1-((dimethylamino)methyl)cyclopropyl)methoxy)-5,6,7,8-tetrahydropyrido[3,4-d]pyrimidin-4-yl)piperazin-2-yl)acetonitrile], the IC50 was 0.0999 µM in test [1], 0.0771 µM in test [2] and 0.00328 µM on KRAS G12C.
Taken in the same sequence, the figures for `C=CC(=O)N1CCN(c2nc(OCC3(CN(C)C)CC3)nc3c2CCN(c2cccc4ncsc24)C3)CC1CC#N` (stereo not drawn) [Compound 54, 2-(1-acryloyl-4-(7-(benzo[d]thiazol-7-yl)-2-((1-((dimethylamino)methyl)cyclopropyl)methoxy)-5,6,7,8-tetrahydropyrido[3,4-d]pyrimidin-4-yl)piperazin-2-yl)acetonitrile] were above 1 µM, above 0.5 µM and 0.0828 µM.
For `C=CC(=O)N1CCN(c2nc(OC(C)C3(CN(C)C)CC3)nc3c2CCN(c2cccc4cccc(C)c24)C3)CC1CC#N` (stereo not drawn) [Compound 57, 2-(1-acryloyl-4-(2-(1-(1-((dimethylamino)methyl)cyclopropyl)ethoxy)-7-(8-methylnaphthalen-1-yl)-5,6,7,8-tetrahydropyrido[3,4-d]pyrimidin-4-yl)piperazin-2-yl)acetonitrile], the IC50 in test [1] is 0.522 µM; in test [2] it was 0.296 µM; on KRAS G12C it was 0.0281 µM.
For `C=CC(=O)N1CCN(c2nc(OCC3(CN4CCN(C)CC4)CC3)nc3c2CCN(c2cccc4cccc(C)c24)C3)CC1CC#N` (stereo not drawn) [Compound 58, 2-(1-acryloyl-4-(7-(8-methylnaphthalen-1-yl)-2-((1-((4-methylpiperazin-1-yl)methyl)cyclopropyl)methoxy)-5,6,7,8-tetrahydropyrido[3,4-d]pyrimidin-4-yl)piperazin-2-yl)acetonitrile] the same measures were 0.0369 µM, 0.0443 µM and 0.00147 µM.
Taken in the same sequence, the figures for `C=CC(=O)N1CCN(c2nc(OCC3(CN4CC(N(C)C)C4)CC3)nc3c2CCN(c2cccc4cccc(C)c24)C3)CC1CC#N` (stereo not drawn) [Compound 59, 2-(1-acryloyl-4-(2-((1-((3-(dimethylamino)azetidin-1-yl)methyl)cyclopropyl)methoxy)-7-(8-methylnaphthalen-1-yl)-5,6,7,8-tetrahydropyrido[3,4-d]pyrimidin-4-yl)piperazin-2-yl)acetonitrile] were 0.0619 µM, 0.0573 µM and 0.00111 µM.
